Source: patent publication US7632528B1, “Antimigraine combination comprising Sapindus and Emblica extracts” (Lupin Limited, priority 2000, dated 2009)
Structures can show the parent of a compound that is named as a salt.

Legend:
migraine attacks = conditions: cited from earlier work
patients having migraine = experiment: Multi-centric double blind clinical studies (placebo, flunarizine, internal crossover); format: in vivo, human
Text: The objective of this study was to evaluate the efficacy and tolerability of the formulation as a prophylactic monotherapy in comparison with a placebo in patients having migraine. Patients were included in the study based on the following criteria: those aged between 15–60 years, diagnosed as having migraine as per International Headache Society Classification (IHSC) guidelines; those with at least two or more attacks of acute migraine per month for at least 6 months; women of child bearing age who take contraceptive measures during the study and those taking no other prophylactic therapy during the study period or alteast one month prior to the study. A detailed ENT examination was conducted prior to the study to rule out any nasal pathology. A written consent was taken from each patient.
Patients with more than 8 attacks a month, unstable angina, hypertension, cardiac failure, severe left ventricular failure, atrophic rhinitis, nasal polyposis, patients taking any prophylactic medication within 1 month of the study, patients with psychiatric disorders, pregnant/nursing women, patients with glaucoma and Parkinson's disease were excluded from the study.
This study, a multi-centric, randomised placebo controlled double blind (test formulation versus matched saline placebo) was conducted at five centres. A non-randomised single blind (test formulation versus flunarizine) study was conducted at two of the five centres. An internal crossover study was done at three of the five centres by cross over of patients in the test formulation and placebo groups.
The duration of study was eight months. The period of treatment was three months. Patients later on were crossed over internally (test formulation and placebo) for further treatment of three months and a follow-up period of two months. One drop of the test formulation was administered into each nostril two times a day, once in the morning and once in the evening. One drop of placebo was administrated into each nostril, once in the morning and once in the evening. flurnarizine tablet (10 mg) was administered once a day orally.
The enrolled patients underwent a general examination, E.N.T. examination and laboratory tests. Each patient was given a diary to record the details of the migraine, episodes, any adverse events(pre- and post-treatment) as well as details of rescue modification taken, if any. The same was also recorded by the investigator.
Patients were instructed on how to record the details of various visual symptoms, nausea, vomiting and headache (viz. time of onset, relief, and any additional treatment) and grade them according to severity (4 point scale) in diary. The recorded observations in the diary were reviewed every month of the study period.
The efficacy of the prophylactic treatment was evaluated on the following basis: • At least 50% reduction in the intensity or duration of migraine attacks (mean duration of migraine in hours) per month at the end of 12 weeks of treatment, compared to baseline. • Reduction in the frequency of attack per month using test formulation and flunarizine compared to placebo (>or =50%). • Consumption of drugs for symptomatic relief of breakthrough attacks in the three groups. • At least 50% or more reduction of attack in patients who respond to test formulation compared to the reduction of attack in patients given placebo. • The safety and patient compliance of test formulation was assessed on the basis of incidence and severity of side effects in each groups compared to placebo and number of drop outs in each group compared to placebo. Results
The results of the trial was statistically analysed based on the following parameters:
• 1. Atleast 50% reduction in the frequency of migraine attacks • 2. Atleast 50% reduction in the duration of migraine attacks • 3. Reduction in the severity of migraine attacks [graded as none (0), mild (1), moderate (2) and severe (3) • 4. […]

[1] = Colouration of the formulation on storage; format: physicochemical; conditions: 3 months
Text: To prevent any colouration during storage of the formulation it is preferable to add an anti-oxidant to prevent the colouration. Sodium metabisulfite is preferably used. When this anti-oxidant is not added the colour of the solution changes from initial colourless to straw yellow to dark yellow in one month's time and to dark brown in three months. Addition of sodium bisulfite arrests the change in colouration. This can be used in a concentration ranging from 0.020% to 0.080% wt/vol of the composition. A range of 0.04 to 0.05% being the most preferred
Tabulation of the colour change as a function of the concentration of the sodium meta bisulfite concentration is given below in Table-III.
The importance of purging the entire system with nitrogen reflects in the colouration to the product. When no nitrogen is bubbled in to the system the colour of the formulation changes to yellow within 3 months, indicating degradation. In batches where the system is constantly kept under nitrogen atmosphere, no change in colouration is observed even after 3 months.

nasal mucosa = experiment: Nasal mucosal irritation as a function of additives in the formulation; format: in vivo; conditions: used as the preservative of the aqueous formulation
[2] = end of third follow-up, comparison with flunarizine

CN1C[C@H](C(=O)N[C@]2(C)O[C@@]3(O)[C@@H]4CCCN4C(=O)[C@H](Cc4ccccc4)N3C2=O)C=C2c3cccc4[nH]cc(c34)C[C@H]21 [Ergotamine, Ergotamine tartrate]
incidence of side effects (migraine attacks; over that observed on use of NSAIDs): 17–41%

Fc1ccc(C(c2ccc(F)cc2)N2CCN(C/C=C/c3ccccc3)CC2)cc1 [Flunarizine, flunarizine]
DROP OUT RATE (%) (patients having migraine; 3 months treatment): 43% | Reduction in mean frequency of attacks (patients having migraine; at each follow-up): significant difference reduction in the mean frequency of attacks at the end each follow up | Reduction in the duration of attacks (patients having migraine; at the follow-ups): significant reduction in the duration of attacks only at the end of the second and third follow-up | Patients with ≧50% REDUCTION IN DURATION (patients having migraine; end of third follow up, comparison with flunarizine): 52.0% | Patients with ≧50% REDUCTION IN DISABILITY (patients having migraine; [2]): 69.6% | Patients with ≧50% REDUCTION IN SEVERITY (patients having migraine; [2]): 42.3% | Patients with ≧50% REDUCTION IN FREQUENCY (patients having migraine; third follow up, comparison with flunarizine): 81.5%

O=S([O-])S(=O)(=O)[O-].[Na+].[Na+] [Sodium meta bisulfite]
Change in colour ([1]; sodium meta bisulfite 0.020 % w/v): Colourless→light brown (3 months) | Change in colour ([1]; sodium meta bisulfite 0.040 % w/v): Colourless→light Yellow (3 months) | Change in colour ([1]; sodium meta bisulfite 0.050 % w/v): Colourless→very light Yellow (3 months) | Change in colour ([1]; sodium meta bisulfite 0.075 % w/v): Remains Colourless (3 months) | Change in colour ([1]; sodium meta bisulfite 0.080 % w/v): Remains Colourless (3 months)

CNS(=O)(=O)Cc1ccc2[nH]cc(CCN(C)C)c2c1 [Sumatriptan, sumatriptan]
relief to migraine attacks (migraine attacks; in one hour, placebo less than 27%): 70%

benzalkonium chloride
Mucosal irritation (nasal mucosa): causes mucosal irritation
